Patent US10239873B2, “7-azaindole or 4,7-diazaindole derivatives as IKKϵ epsilon and TBK1 inhibitor and pharmaceutical composition comprising same” (GREEN CROSS CORPORATION, priority 2015, dated 2019)
pIC50: −log10 of the molar value.

The molecules below were run against T1, TBK1 (Homo sapiens, UniProt Q9UHD2) (assay: ADP-Glo Kinase Assay, inhibition activity on TBK1).
T1 construct: purchased Promega (Invitrogen is also named in the same bracket) V4158; PR8031B; V3991 (not assigned to the two kinases)
T1 sequence (Q9UHD2 1-729): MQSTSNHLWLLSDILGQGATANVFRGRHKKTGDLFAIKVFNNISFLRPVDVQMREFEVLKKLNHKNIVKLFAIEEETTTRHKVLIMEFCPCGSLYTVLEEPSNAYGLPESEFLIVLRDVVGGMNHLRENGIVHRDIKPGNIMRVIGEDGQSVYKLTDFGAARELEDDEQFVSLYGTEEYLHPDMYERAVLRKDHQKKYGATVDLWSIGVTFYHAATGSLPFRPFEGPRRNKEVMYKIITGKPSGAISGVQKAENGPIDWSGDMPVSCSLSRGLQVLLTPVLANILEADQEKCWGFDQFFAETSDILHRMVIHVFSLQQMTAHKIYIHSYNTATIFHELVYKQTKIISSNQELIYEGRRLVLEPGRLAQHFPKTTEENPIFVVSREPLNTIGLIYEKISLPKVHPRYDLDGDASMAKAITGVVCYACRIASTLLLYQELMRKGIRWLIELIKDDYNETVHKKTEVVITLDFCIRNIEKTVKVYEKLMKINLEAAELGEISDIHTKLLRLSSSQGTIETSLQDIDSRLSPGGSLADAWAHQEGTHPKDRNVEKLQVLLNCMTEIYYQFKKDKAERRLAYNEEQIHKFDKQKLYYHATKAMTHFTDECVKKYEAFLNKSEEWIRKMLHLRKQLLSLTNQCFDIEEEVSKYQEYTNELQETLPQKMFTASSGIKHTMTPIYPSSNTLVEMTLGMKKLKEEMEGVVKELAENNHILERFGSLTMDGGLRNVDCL
Format: biochemical
Experimental: Inhibition activities on IKKϵ and TBK1 were evaluated using the compounds of Examples 1 to 250.
The inhibition activities on IKKϵ and TBK1 were measured by a luminometer, IKKϵ/TBK1 Kinase Enzyme System (Promega, Ca# V4158; Invitrogen, PR8031B, Promega, Ca# V3991) and ADP-Glo Kinase Assay using ADP-Glo™ Kinase Analysis Kit (Promega, Ca# V9101) and a kinase reaction buffer [40 mM Tris(pH 7.5), 20 mM MgCl2, 0.1 mg/mL BSA] in accordance with the manufacturer's protocol.

pIC50 | Structure (SMILES)
7.38 | CC(C)(C)OC(=O)N1CC=C(c2c[nH]c3ncc(-c4cccc(S(N)(=O)=O)c4)cc23)CC1 [Example 151, tert-Butyl 4-(5-(3-sulfamoylphenyl)-1H-pyrrolo[2,3-b]pyridin-3-yl)-5,6-dihydropyridine-1(2H)-carboxylate]
7.09 | CC(C)(C)OC(=O)N1CC=C(c2c[nH]c3ncc(-c4ccc(S(N)(=O)=O)cc4)cc23)CC1 [Example 152, tert-Butyl 4-(5-(4-sulfamoylphenyl)-1H-pyrrolo[2,3-b]pyridin-3-yl)-5,6-dihydropyridine-1(2H)-carboxylate]
6.10 | CC(C)(C)OC(=O)N1CC=C(c2c[nH]c3ncc(-c4ccc(CN5CCOCC5)s4)cc23)CC1 [Example 153, tert-Butyl 4-(5-(5-(morpholinomethyl)thiophen-2-yl)-1H-pyrrolo[2,3-b]pyridin-3-yl)-5,6-dihydropyridine-1(2H)-carboxylate]
6.49 | CC(C)(C)OC(=O)N1CC=C(c2c[nH]c3ncc(-c4ccc(CN5CCOCC5)cc4)cc23)CC1 [Example 154, tert-Butyl 4-(5-(4-(morpholinomethyl)phenyl)-1H-pyrrolo[2,3-b]pyridin-3-yl)-5,6-dihydropyridine-1(2H)-carboxylate]
7.41 | CC(C)(C)OC(=O)N1CC=C(c2c[nH]c3ncc(-c4ccc(C(=O)N5CCOCC5)cc4)cc23)CC1 [Example 155, tert-Butyl 4-(5-(4-(morpholine-4-carbonyl)phenyl)-1H-pyrrolo[2,3-b]pyridin-3-yl)-5,6-dihydropyridine-1(2H)-carboxylate]
6.59 | CC(C)(C)OC(=O)N1CC=C(c2c[nH]c3ncc(-c4cccc(CN5CCOCC5)c4)cc23)CC1 [Example 156, tert-Butyl 4-(5-(3-(morpholinomethyl)phenyl)-1H-pyrrolo[2,3-b]pyridin-3-yl)-5,6-dihydropyridine-1(2H)-carboxylate]
6.44 | CC(C)(C)OC(=O)N1CC=C(c2c[nH]c3ncc(-c4ccc(N5CCOCC5)nc4)cc23)CC1 [Example 157, tert-Butyl 4-(5-(6-morpholinopyridin-3-yl)-1H-pyrrolo[2,3-b]pyridin-3-yl)-5,6-dihydropyridine-1(2H)-carboxylate]
6.39 | CC(C)(C)OC(=O)N1CC=C(c2c[nH]c3ncc(-c4ccc(N5CCOCC5)cc4)cc23)CC1 [Example 158, tert-Butyl 4-(5-(4-morpholinophenyl)-1H-pyrrolo[2,3-b]pyridin-3-yl)-5,6-dihydropyridine-1(2H)-carboxylate]
6.22 | CC(C)(C)OC(=O)N1CC=C(c2c[nH]c3ncc(-c4ccc(N5CCCCC5)cc4)cc23)CC1 [Example 159, tert-Butyl 4-(5-(4-(piperidin-1-yl)phenyl)-1H-pyrrolo[2,3-b]pyridin-3-yl)-5,6-dihydropyridine-1(2H)-carboxylate]
5.70 | CC(C)(C)OC(=O)N1CC=C(c2c[nH]c3ncc(-c4ccc5c(c4)OCO5)cc23)CC1 [Example 160, tert-Butyl 4-(5-(benzo[d][1,3]dioxol-5-yl)-1H-pyrrolo[2,3-b]pyridin-3-yl)-5,6-dihydropyridine-1(2H)-carboxylate]
6.22 | COc1ccc(-c2cnc3[nH]cc(C4=CCN(C(=O)OC(C)(C)C)CC4)c3c2)cn1 [Example 161, tert-Butyl 4-(5-(6-methoxypyridin-3-yl)-1H-pyrrolo[2,3-b]pyridin-3-yl)-5,6-dihydropyridine-1(2H)-carboxylate]
7.11 | CC(C)(C)OC(=O)N1CC=C(c2c[nH]c3ncc(-c4cccc(S(C)(=O)=O)c4)cc23)CC1 [Example 162, tert-Butyl 4-(5-(3-(methylsulfonyl)phenyl)-1H-pyrrolo[2,3-b]pyridin-3-yl)-5,6-dihydropyridine-1(2H)-carboxylate]
7.23 | CNS(=O)(=O)c1cccc(-c2cnc3[nH]cc(C4=CCN(C(=O)OC(C)(C)C)CC4)c3c2)c1 [Example 163, tert-Butyl 4-(5-(3-(N-methylsulfamoyl)phenyl)-1H-pyrrolo[2,3-b]pyridin-3-yl)-5,6-dihydropyridine-1(2H)-carboxylate]
6.60 | CC(C)(C)OC(=O)N1CC=C(c2c[nH]c3ncc(-c4ccc(S(C)(=O)=O)cc4)cc23)CC1 [Example 164, tert-Butyl 4-(5-(4-(methylsulfonyl)phenyl)-1H-pyrrolo[2,3-b]pyridin-3-yl)-5,6-dihydropyridine-1(2H)-carboxylate]
7.55 | CNS(=O)(=O)c1ccc(-c2cnc3[nH]cc(C4=CCN(C(=O)OC(C)(C)C)CC4)c3c2)cc1 [Example 165, tert-Butyl 4-(5-(4-(N-methylsulfamoyl)phenyl)-1H-pyrrolo[2,3-b]pyridin-3-yl)-5,6-dihydropyridine-1(2H)-carboxylate]
6.02 | CC(=O)c1ccc(-c2cnc3[nH]cc(C4=CCN(C(=O)OC(C)(C)C)CC4)c3c2)cc1 [Example 166, tert-Butyl 4-(5-(4-acetylphenyl)-1H-pyrrolo[2,3-b]pyridin-3-yl)-5,6-dihydropyridine-1(2H)-carboxylate]
5.80 | COC(=O)c1ccc(-c2cnc3[nH]cc(C4=CCN(C(=O)OC(C)(C)C)CC4)c3c2)cc1 [Example 167, tert-Butyl 4-(5-(4-(methoxycarbonyl)phenyl)-1H-pyrrolo[2,3-b]pyridin-3-yl)-5,6-dihydropyridine-1(2H)-carboxylate]
5.89 | CC(C)(C)OC(=O)N1CC=C(c2c[nH]c3ncc(-c4ccc(C#N)cc4)cc23)CC1 [Example 168, tert-Butyl 4-(5-(4-cyanophenyl)-1H-pyrrolo[2,3-b]pyridin-3-yl)-5,6-dihydropyridine-1(2H)-carboxylate]
5.35 | CC(C)(C)OC(=O)N1CC=C(c2c[nH]c3ncc(-c4cccc(C#N)c4)cc23)CC1 [Example 169, tert-Butyl 4-(5-(3-cyanophenyl)-1H-pyrrolo[2,3-b]pyridin-3-yl)-5,6-dihydropyridine-1(2H)-carboxylate]
6.06 | COc1ccc(-c2cnc3[nH]cc(C4=CCN(C(=O)OC5CCCC5)CC4)c3c2)cc1F [Example 171, Cyclopentyl 4-(5-(3-fluoro-4-methoxyphenyl)-1H-pyrrolo[2,3-b]pyridin-3-yl)-5,6-dihydropyridine-1(2H)-carboxylate]
7.26 | CS(=O)(=O)c1cccc(-c2cnc3[nH]cc(C4=CCN(C(=O)OC5CCCC5)CC4)c3c2)c1 [Example 172, Cyclopentyl 4-(5-(3-(methylsulfonyl)phenyl)-1H-pyrrolo[2,3-b]pyridin-3-yl)-5,6-dihydropyridine-1(2H)-carboxylate]
6.92 | CS(=O)(=O)c1ccc(-c2cnc3[nH]cc(C4=CCN(C(=O)OC5CCCC5)CC4)c3c2)cc1 [Example 173, Cyclopentyl 4-(5-(4-(methylsulfonyl)phenyl)-1H-pyrrolo[2,3-b]pyridin-3-yl)-5,6-dihydropyridine-1(2H)-carboxylate]
6.72 | CCS(=O)(=O)c1cccc(-c2cnc3[nH]cc(C4=CCN(C(=O)OC5CCCC5)CC4)c3c2)c1 [Example 174, Cyclopentyl 4-(5-(3-(ethylsulfonyl)phenyl)-1H-pyrrolo[2,3-b]pyridin-3-yl)-5,6-dihydropyridine-1(2H)-carboxylate]
6.46 | O=C(OC1CCCC1)N1CC=C(c2c[nH]c3ncc(-c4ccc(S(=O)(=O)C5CC5)cc4)cc23)CC1 [Example 175, Cyclopentyl 4-(5-(4-(cyclopropylsulfonyl)phenyl)-1H-pyrrolo[2,3-b]pyridin-3-yl)-5,6-dihydropyridine-1(2H)-carboxylate]
